Drawing on PubChem BioAssay AID248 (DTP/NCI, 2004), this text covers T/C for 18 molecules.

The experiment concerns L1210 leukemia ip in BDF1 mice, survival T/C. The experiment is described as follows: NCI In Vivo Anticancer Drug Screen. Data for tumor model L1210 Leukemia (intraperitoneal) in B6D2F1 (BDF1) mice. To be noted: endpoint: mean survival time, higher = longer survival. Put shortly:
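Survival endpoint. Drug-treated group vs vehicle group, expressed as T divided by C. Tumor passaged by transplantation.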

Setting [1] is: dose: 100.0 mg/kg/injection, schedule: Q04DX003 (ip), vehicle: saline with Tween-80.
The mark [2] stands for this setting: dose: 200.0 mg/kg/injection, schedule: Q04DX003 (ip), vehicle: saline with Tween-80.
[3] abbreviates: dose: 400.0 mg/kg/injection, schedule: Q04DX003 (ip), vehicle: saline with Tween-80.
Where [4] appears, read: dose: 100.0 mg/kg/injection, schedule: Q04DX002 (ip), vehicle: saline with Tween-80.
Setting [5] is: dose: 200.0 mg/kg/injection, schedule: Q04DX002 (ip), vehicle: saline with Tween-80.
[6] abbreviates: dose: 400.0 mg/kg/injection, schedule: Q04DX002 (ip), vehicle: saline with Tween-80.
Where [7] appears, read: dose: 100.0 mg/kg/injection, schedule: Q01DX009 (ip), vehicle: saline with Tween-80.
Setting [8] is: dose: 200.0 mg/kg/injection, schedule: Q01DX009 (ip), vehicle: saline with Tween-80.
Setting [9] is: dose: 100.0 mg/kg/injection, schedule: Q04DX003 (ip), vehicle: saline.
[10] abbreviates: dose: 200.0 mg/kg/injection, schedule: Q04DX003 (ip), vehicle: saline.
Setting [11] is: dose: 400.0 mg/kg/injection, schedule: Q04DX003 (ip), vehicle: saline.

Where “and” joins values, the source holds several entries; their conditions need not be identical. Identical values can stand only once. Toxic doses and inconclusive results are not listed.

Consider `CN(NC(=O)c1ccccc1)c1ccccc1`, for which the T/C runs as follows: under setting [1], 96 % of control; under setting [2], 107 % of control; under setting [3], 105 % of control.
As to `CC12CC3CC(C)(C1)CC(CN=C(N)CS)(C3)C2`, the T/C was 109 % of control (dose: 2.5 mg/kg/injection, schedule: Q01DX009 (ip), vehicle: Klucel (hydroxypropylcellulose) (HPC)); 96 % of control (dose: 2.5 mg/kg/injection, schedule: Q04DX002 (ip), vehicle: Klucel (hydroxypropylcellulose) (HPC)); 114 % of control (dose: 5.0 mg/kg/injection, schedule: Q01DX009 (ip), vehicle: Klucel (hydroxypropylcellulose) (HPC)); 101 % of control (dose: 5.0 mg/kg/injection, schedule: Q04DX002 (ip), vehicle: Klucel (hydroxypropylcellulose) (HPC)); 111 % of control (dose: 10.0 mg/kg/injection, schedule: Q01DX009 (ip), vehicle: Klucel (hydroxypropylcellulose) (HPC)); 102 % of control (dose: 10.0 mg/kg/injection, schedule: Q04DX002 (ip), vehicle: Klucel (hydroxypropylcellulose) (HPC)).
Turning to `O=C(O)c1ccc(NCCO)cc1`, the T/C is 102 % of control (dose: 75.0 mg/kg/injection, schedule: Q01DX009 (ip), vehicle: Klucel (hydroxypropylcellulose) (HPC)); 90 % of control (dose: 150.0 mg/kg/injection, schedule: Q01DX009 (ip), vehicle: Klucel (hydroxypropylcellulose) (HPC)); 90 % of control (dose: 300.0 mg/kg/injection, schedule: Q01DX009 (ip), vehicle: Klucel (hydroxypropylcellulose) (HPC)).
Regarding `OCCSc1ccc2ccccc2c1`, the T/C reads like this: under setting [4], 94 % of control; under setting [5], 90 % of control; under setting [6], 103 % of control.
`CCCCCCCCC(=O)N(C(C)C)C(C)C`: the T/C was 93 % of control and 102 % of control (dose: 100.0 mg/kg/injection, schedule: Q01DX009 (ip), vehicle: carboxymethylcellulose (CMC)); 98 % of control and 101 % of control (dose: 100.0 mg/kg/injection, schedule: Q04DX002 (ip), vehicle: carboxymethylcellulose (CMC)); 93 % of control and 96 % of control (dose: 200.0 mg/kg/injection, schedule: Q01DX009 (ip), vehicle: carboxymethylcellulose (CMC)); 95 % of control and 92 % of control (dose: 200.0 mg/kg/injection, schedule: Q04DX002 (ip), vehicle: carboxymethylcellulose (CMC)); 92 % of control (dose: 400.0 mg/kg/injection, schedule: Q01DX009 (ip), vehicle: carboxymethylcellulose (CMC)); 87 % of control and 92 % of control (dose: 400.0 mg/kg/injection, schedule: Q04DX002 (ip), vehicle: carboxymethylcellulose (CMC)).
For the molecule `CC(=O)OCC1OC(n2cnc([N+](=O)[O-])c2Br)C(OC(C)=O)C1OC(C)=O` (centres undefined), the T/C runs as follows: (dose: 50.0 mg/kg/injection, schedule: Q01DX001 (ip), vehicle: saline) 98 % of control; (dose: 100.0 mg/kg/injection, schedule: Q01DX001 (ip), vehicle: saline) 98 % of control; (dose: 200.0 mg/kg/injection, schedule: Q01DX001 (ip), vehicle: saline) 102 % of control; (dose: 400.0 mg/kg/injection, schedule: Q01DX001 (ip), vehicle: saline) 102 % of control.
Consider `[Cl][Sn]([Cl])([c]1ccccc1)[c]1ccccc1.c1ccc(-c2nnc(-c3ccccn3)nc2-c2ccccc2)cc1`, for which the T/C runs as follows: (dose: 3.12 mg/kg/injection, schedule: Q04DX003 (ip), vehicle: saline with Tween-80) 96 % of control; (dose: 6.25 mg/kg/injection, schedule: Q04DX003 (ip), vehicle: saline with Tween-80) 104 % of control; (dose: 6.25 mg/kg/injection, schedule: Q04DX003 (ip), vehicle: saline) 93 % of control; (dose: 12.5 mg/kg/injection, schedule: Q04DX003 (ip), vehicle: saline with Tween-80) 112 % of control; (dose: 12.5 mg/kg/injection, schedule: Q04DX003 (ip), vehicle: saline) 98 % of control; (dose: 25.0 mg/kg/injection, schedule: Q04DX003 (ip), vehicle: saline) 120 % of control.
On to `COC(=O)c1[nH]nc(-c2ccccc2)c1N`, for which the T/C by setting is: under setting [1], 101 % of control; under setting [2], 93 % of control; under setting [3], 90 % of control.
Take `CC1CCc2cc3ccccc3nc21` (centres undefined): the T/C is 104 % of control (dose: 50.0 mg/kg/injection, schedule: Q01DX009 (ip), vehicle: saline with Tween-80); 104 % of control under setting [7]; 112 % of control under setting [8].
On to `CCC1(CCC#N)CCC(N)=CC1=O` (centres undefined), for which the T/C under setting [7] was 97 % of control; the T/C under setting [8] is 106 % of control; the T/C (dose: 400.0 mg/kg/injection, schedule: Q01DX009 (ip), vehicle: saline with Tween-80) is 97 % of control.
Take `O=COC(CCCc1ccccc1)c1ccc2c(c1)OCO2` (centres undefined): the T/C runs as follows: (dose: 100.0 mg/kg/injection, schedule: Q04DX003 (ip), vehicle: other) 93 % of control; (dose: 200.0 mg/kg/injection, schedule: Q04DX003 (ip), vehicle: other) 93 % of control; (dose: 400.0 mg/kg/injection, schedule: Q04DX003 (ip), vehicle: other) 98 % of control.
In the case of `Nc1nc2c(c(=O)[nH]1)CP(=S)(c1ccccc1)CC2` (centres undefined), the T/C was 102 % of control under setting [4], 102 % of control under setting [5] and 94 % of control under setting [6].
In the case of `CCCCCCCCCCCCCCCCCC(=O)Nc1ccc(O)cc1`, the T/C reads like this: (dose: 100.0 mg/kg/injection, schedule: Q01DX009 (ip), vehicle: gum acacia) 87 % of control; (dose: 100.0 mg/kg/injection, schedule: Q04DX003 (ip), vehicle: gum acacia) 88 % of control; (dose: 200.0 mg/kg/injection, schedule: Q01DX009 (ip), vehicle: gum acacia) 90 % of control; (dose: 200.0 mg/kg/injection, schedule: Q04DX003 (ip), vehicle: gum acacia) 88 % of control; (dose: 400.0 mg/kg/injection, schedule: Q01DX009 (ip), vehicle: gum acacia) 90 % of control; (dose: 400.0 mg/kg/injection, schedule: Q04DX003 (ip), vehicle: gum acacia) 90 % of control.
Regarding `O=C(O)CCC(=O)NCCNC(c1ccccc1)(c1ccccc1)c1ccccc1`, the T/C is 96 % of control (dose: 12.0 mg/kg/injection, schedule: Q01DX009 (ip), vehicle: saline); 96 % of control (dose: 25.0 mg/kg/injection, schedule: Q01DX009 (ip), vehicle: saline); 100 % of control (dose: 50.0 mg/kg/injection, schedule: Q01DX009 (ip), vehicle: saline); 111 % of control under setting [9]; 94 % of control under setting [10]; 105 % of control under setting [11].
Consider `CC(=O)OC1=CCC(C(C)(C)C)CC1` (centres undefined), for which the T/C was 107 % of control (dose: 12.5 mg/kg/injection, schedule: Q01DX009 (ip), vehicle: Klucel (hydroxypropylcellulose) (HPC)); 96 % of control (dose: 12.5 mg/kg/injection, schedule: Q04DX003 (ip), vehicle: Klucel (hydroxypropylcellulose) (HPC)); 93 % of control (dose: 25.0 mg/kg/injection, schedule: Q01DX009 (ip), vehicle: Klucel (hydroxypropylcellulose) (HPC)); 102 % of control (dose: 25.0 mg/kg/injection, schedule: Q04DX003 (ip), vehicle: Klucel (hydroxypropylcellulose) (HPC)); 106 % of control (dose: 50.0 mg/kg/injection, schedule: Q04DX003 (ip), vehicle: Klucel (hydroxypropylcellulose) (HPC)).
In the case of `Cc1cc(N=Nc2ccccc2)c2cccnc2c1N`, the T/C runs as follows: (dose: 50.0 mg/kg/injection, schedule: Q04DX003 (ip), vehicle: DMSO) 91 % of control; (dose: 100.0 mg/kg/injection, schedule: Q04DX003 (ip), vehicle: DMSO) 97 % of control.
As for `CNC(=N)c1ccc(NC(=N)c2ccc(NC(=N)c3ccc(NC(=O)c4ccc(C(=N)NC)cc4)cc3)cc2)cc1`, the T/C by setting is: (dose: 3.75 mg/kg/injection, schedule: Q01DX015 (ip), vehicle: water) 104 % of control; (dose: 7.5 mg/kg/injection, schedule: Q01DX015 (ip), vehicle: water) 101 % of control; (dose: 15.0 mg/kg/injection, schedule: Q01DX015 (ip), vehicle: water) 108 % of control; (dose: 20.0 mg/kg/injection, schedule: Q01DX Z (ip), vehicle: water) 177 % of control; (dose: 30.0 mg/kg/injection, schedule: Q01DX015 (ip), vehicle: water) 176 % of control and 180 % of control; (dose: 50.0 mg/kg/injection, schedule: Q01DX015 (ip), vehicle: water) 97 % of control.
For the molecule `CSC(=S)NNC(=O)C1CCCCC1`, the T/C is 106 % of control under setting [9], 98 % of control under setting [10] and 104 % of control under setting [11].
